Measurements reported in publication PMC6199744, “Development of Chemical Proteomics for the Folateome and Analysis of the Kinetoplastid Folateome” (ACS Infectious Diseases, 2018).
Where two headings read alike, the source gives them in different places.

Tests used:
Type in all cases: binding
[1] = target: T1, HeLa cell extract proteins (Homo sapiens, UniProt Q9ULX6)
T1 construct: endogenous in cells; host or cells: HeLa cell extract
T1 sequence (Q9ULX6 1-646): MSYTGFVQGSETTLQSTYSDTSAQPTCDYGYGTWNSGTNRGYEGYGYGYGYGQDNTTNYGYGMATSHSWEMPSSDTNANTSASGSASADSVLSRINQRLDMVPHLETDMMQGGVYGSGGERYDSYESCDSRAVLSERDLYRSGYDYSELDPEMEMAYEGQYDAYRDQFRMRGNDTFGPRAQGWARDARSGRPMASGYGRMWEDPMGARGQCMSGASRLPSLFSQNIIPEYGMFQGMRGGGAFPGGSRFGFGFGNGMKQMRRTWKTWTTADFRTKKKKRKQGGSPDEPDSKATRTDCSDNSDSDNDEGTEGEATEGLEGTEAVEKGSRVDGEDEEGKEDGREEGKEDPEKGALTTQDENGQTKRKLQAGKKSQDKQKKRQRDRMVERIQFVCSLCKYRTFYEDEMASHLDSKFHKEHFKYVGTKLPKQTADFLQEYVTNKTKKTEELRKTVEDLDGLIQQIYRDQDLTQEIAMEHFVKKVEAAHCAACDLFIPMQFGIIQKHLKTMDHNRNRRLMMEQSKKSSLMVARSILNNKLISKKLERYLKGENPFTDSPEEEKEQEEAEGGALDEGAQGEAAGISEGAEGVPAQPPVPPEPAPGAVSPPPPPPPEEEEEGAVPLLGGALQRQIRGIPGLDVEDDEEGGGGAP

[2] = target: T2, HeLa cell extract proteins (Homo sapiens, UniProt Q5JVF3)
T2 construct: endogenous in cells; host or cells: HeLa cell extract
T2 sequence (Q5JVF3 whole entry): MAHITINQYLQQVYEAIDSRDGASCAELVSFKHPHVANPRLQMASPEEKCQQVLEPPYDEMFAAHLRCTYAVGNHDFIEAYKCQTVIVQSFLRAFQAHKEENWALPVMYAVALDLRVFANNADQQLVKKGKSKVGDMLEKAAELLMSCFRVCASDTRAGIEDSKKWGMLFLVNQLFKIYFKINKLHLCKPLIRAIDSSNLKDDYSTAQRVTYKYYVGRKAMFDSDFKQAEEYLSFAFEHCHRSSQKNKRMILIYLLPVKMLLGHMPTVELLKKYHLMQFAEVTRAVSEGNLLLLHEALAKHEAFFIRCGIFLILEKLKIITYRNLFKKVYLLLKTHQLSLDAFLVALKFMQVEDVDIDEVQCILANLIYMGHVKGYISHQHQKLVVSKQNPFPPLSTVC

[3] = target: T3, HeLa cell extract proteins (Homo sapiens, UniProt Q9BT22)
T3 construct: endogenous in cells; host or cells: HeLa cell extract
T3 sequence (Q9BT22 1-464): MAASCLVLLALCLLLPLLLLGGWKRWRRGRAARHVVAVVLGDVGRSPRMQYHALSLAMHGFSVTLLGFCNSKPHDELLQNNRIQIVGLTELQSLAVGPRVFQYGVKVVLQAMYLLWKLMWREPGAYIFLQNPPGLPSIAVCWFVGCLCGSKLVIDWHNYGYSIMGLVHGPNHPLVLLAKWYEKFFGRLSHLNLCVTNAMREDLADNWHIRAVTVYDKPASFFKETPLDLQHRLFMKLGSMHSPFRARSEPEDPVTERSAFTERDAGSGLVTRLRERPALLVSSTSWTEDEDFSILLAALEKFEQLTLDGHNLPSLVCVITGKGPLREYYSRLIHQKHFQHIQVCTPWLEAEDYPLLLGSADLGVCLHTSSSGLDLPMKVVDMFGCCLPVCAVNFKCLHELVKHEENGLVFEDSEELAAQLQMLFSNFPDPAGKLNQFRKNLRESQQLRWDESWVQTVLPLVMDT

[4] = target: T4, HeLa cell extract proteins (Homo sapiens, UniProt Q9H000)
T4 construct: endogenous in cells; host or cells: HeLa cell extract
T4 sequence (Q9H000 1-416): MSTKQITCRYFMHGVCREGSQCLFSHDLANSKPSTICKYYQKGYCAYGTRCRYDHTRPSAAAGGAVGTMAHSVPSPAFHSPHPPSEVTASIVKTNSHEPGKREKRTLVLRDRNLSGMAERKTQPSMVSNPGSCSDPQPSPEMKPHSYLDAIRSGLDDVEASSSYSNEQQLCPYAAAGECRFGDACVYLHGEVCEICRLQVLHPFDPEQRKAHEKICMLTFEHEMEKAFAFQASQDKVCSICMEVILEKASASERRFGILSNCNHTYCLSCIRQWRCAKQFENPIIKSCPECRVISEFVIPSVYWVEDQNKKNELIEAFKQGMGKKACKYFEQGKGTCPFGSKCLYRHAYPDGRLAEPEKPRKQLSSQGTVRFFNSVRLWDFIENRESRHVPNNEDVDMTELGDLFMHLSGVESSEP

[5] = target: T5, HeLa cell extract proteins (Homo sapiens, UniProt P42704)
T5 construct: endogenous in cells; host or cells: HeLa cell extract

[6] = target: T6, HeLa cell extract proteins (Homo sapiens, UniProt Q15046)
T6 construct: endogenous in cells; host or cells: HeLa cell extract
T6 sequence (Q15046 whole entry): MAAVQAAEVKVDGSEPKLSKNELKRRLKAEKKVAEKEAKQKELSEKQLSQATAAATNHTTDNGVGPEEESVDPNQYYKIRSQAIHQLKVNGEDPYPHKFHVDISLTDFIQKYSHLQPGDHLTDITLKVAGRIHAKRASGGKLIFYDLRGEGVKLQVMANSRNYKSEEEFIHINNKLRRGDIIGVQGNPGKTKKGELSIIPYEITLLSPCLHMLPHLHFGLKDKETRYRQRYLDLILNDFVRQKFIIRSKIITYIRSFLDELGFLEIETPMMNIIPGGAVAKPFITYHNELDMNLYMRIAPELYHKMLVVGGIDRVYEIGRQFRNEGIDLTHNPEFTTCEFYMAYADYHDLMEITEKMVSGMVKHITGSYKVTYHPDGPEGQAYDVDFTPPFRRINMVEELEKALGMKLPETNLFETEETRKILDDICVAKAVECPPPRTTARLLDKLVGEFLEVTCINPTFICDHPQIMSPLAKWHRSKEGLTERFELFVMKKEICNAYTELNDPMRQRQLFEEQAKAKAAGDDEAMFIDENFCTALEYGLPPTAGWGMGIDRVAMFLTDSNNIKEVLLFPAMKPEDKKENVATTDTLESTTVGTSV

[7] = target: T7, HeLa cell extract proteins (Homo sapiens, UniProt P05387)
T7 construct: endogenous in cells; host or cells: HeLa cell extract
T7 sequence (P05387 whole entry): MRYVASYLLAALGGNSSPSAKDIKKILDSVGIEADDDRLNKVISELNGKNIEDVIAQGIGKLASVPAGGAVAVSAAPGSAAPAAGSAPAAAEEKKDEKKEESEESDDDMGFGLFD

[8] = target: T8, HeLa cell extract proteins (Homo sapiens, UniProt Q15392)
T8 construct: endogenous in cells; host or cells: HeLa cell extract
T8 sequence (Q15392 23-516): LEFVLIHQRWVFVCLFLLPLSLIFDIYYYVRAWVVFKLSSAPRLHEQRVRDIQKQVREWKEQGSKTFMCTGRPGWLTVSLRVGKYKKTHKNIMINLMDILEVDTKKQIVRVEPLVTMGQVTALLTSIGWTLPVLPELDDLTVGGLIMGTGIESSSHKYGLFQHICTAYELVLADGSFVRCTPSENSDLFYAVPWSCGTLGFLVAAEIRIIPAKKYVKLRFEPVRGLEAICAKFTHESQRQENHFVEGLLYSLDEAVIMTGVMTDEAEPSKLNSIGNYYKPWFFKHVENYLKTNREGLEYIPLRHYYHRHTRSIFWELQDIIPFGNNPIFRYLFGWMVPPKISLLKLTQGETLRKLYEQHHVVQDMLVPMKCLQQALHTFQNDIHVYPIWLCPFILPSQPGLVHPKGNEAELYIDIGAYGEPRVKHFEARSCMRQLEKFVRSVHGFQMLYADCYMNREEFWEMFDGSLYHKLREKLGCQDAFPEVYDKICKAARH

[9] = target: T9, HeLa cell extract proteins (Homo sapiens, UniProt O43865)
T9 construct: endogenous in cells; host or cells: HeLa cell extract
T9 sequence (O43865 whole entry): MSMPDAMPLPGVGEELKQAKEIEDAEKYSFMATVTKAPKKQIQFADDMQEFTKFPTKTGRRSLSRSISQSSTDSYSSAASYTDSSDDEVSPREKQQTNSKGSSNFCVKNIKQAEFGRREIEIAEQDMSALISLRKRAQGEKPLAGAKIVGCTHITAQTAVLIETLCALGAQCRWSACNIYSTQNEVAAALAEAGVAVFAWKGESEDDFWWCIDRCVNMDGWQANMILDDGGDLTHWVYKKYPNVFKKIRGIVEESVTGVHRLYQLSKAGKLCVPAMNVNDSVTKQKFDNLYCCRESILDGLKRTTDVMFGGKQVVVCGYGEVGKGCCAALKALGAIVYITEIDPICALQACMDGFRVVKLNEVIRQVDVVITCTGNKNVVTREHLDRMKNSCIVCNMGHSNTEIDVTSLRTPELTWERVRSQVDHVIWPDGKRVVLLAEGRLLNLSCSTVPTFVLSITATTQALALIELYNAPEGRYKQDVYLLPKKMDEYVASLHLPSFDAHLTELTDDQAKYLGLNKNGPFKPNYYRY

[10] = HeLa, protein MKRN2 (MAKORIN-2)
[11] = HeLa, protein DHCR24 (24-DEHYDROC[…] PRECURSOR)

Row | Structure (SMILES) | fold changes relative to vehicle control ([1]; HeLa, protein AKAP8L) | fold changes relative to vehicle control ([2]; protein PCID2, HeLa) | fold changes relative to vehicle control ([3]; HeLa, protein ALG1) | fold changes relative to vehicle control [4, 10] | fold changes relative to vehicle control ([5]; HeLa, protein LRPPRC) | fold changes relative to vehicle control ([6]; HeLa, captured protein KARS) | fold changes relative to vehicle control ([7]; protein RPLP2, HeLa) | fold changes relative to vehicle control ([9]; HeLa, captured protein AHCYL1) | fold changes relative to vehicle control ([1]; captured protein AKAP8L, HeLa) | fold changes relative to vehicle control ([2]; HeLa, protein PCID2) | fold changes relative to vehicle control ([3]; captured protein ALG1, HeLa) | fold changes relative to vehicle control ([4]; captured protein MKRN2, HeLa) | fold changes relative to vehicle control ([5]; protein LRPPRC, HeLa) | fold changes relative to vehicle control ([6]; protein KARS, HeLa) | fold changes relative to vehicle control ([8]; protein DHCR24, HeLa) | fold changes relative to vehicle control ([9]; protein AHCYL1, HeLa) | further results
1 | Nc1nc2c(c(=O)[nH]1)N(C=O)C(CNc1ccc(C(=O)N[C@@H](CCC(=O)O)C(=O)O)cc1)CN2 (stereo partly drawn) [LEU, leucovorin] | 1.01 | 0.74 | 0.85 | 1.02 | 0.92 | 0.91 | 0.82 | 1.12 |  |  |  |  |  |  |  |  | fold changes relative to vehicle control [8, 11]: 1.13
2 | Nc1nc2[nH]cc(CCc3ccc(C(=O)N[C@@H](CCC(=O)O)C(=O)O)cc3)c2c(=O)[nH]1 [PTX, pemetrexed] |  |  |  |  |  |  |  |  |  |  |  |  |  |  |  |  | fold changes relative to vehicle control [1]: 0.95; fold changes relative to vehicle control [2]: 0.68; fold changes relative to vehicle control [3]: 0.81; fold changes relative to vehicle control [4]: 0.91; fold changes relative to vehicle control [5]: 1.15; fold changes relative to vehicle control [6]: 0.96; fold changes relative to vehicle control [7]: 0.94; fold changes relative to vehicle control [8]: 1.05; fold changes relative to vehicle control [9]: 1.08
3 | CCCCCCOc1ccc(Cc2cnc(N)nc2N)cc1 [compound 1] |  |  |  |  |  |  | 0.76 |  | 0.79 | 1.13 | 0.88 | 0.9 | 0.92 | 0.74 | 1.03 | 1.1 | 
4 | CCCCCCOc1cccc(Cc2cnc(N)nc2N)c1 [compound 2] |  |  |  |  |  |  | 1.65 |  | 1.03 | 0.97 | 0.91 | 0.9 | 1.33 | 1.12 | 0.83 | 1.59 | 
5 | Nc1nc2cccc(-c3ccccc3)c2n1Cc1ccc(Cl)c(Cl)c1 [compound 3] |  |  |  |  |  |  | 0.81 |  | 0.92 | 1.2 | 1.05 | 0.89 | 0.74 | 1.13 | 1.02 | 0.94 | 
6 | NCCOCCOCC(=O)Nc1nc2ncc(CNc3ccc(C(=O)NC(CCC(=O)O)C(=O)O)cc3)nc2c(=O)[nH]1 (stereo not drawn) [compound 6] | 1.01 | 0.91 | 0.93 | 0.92 | 1.22 | 1.04 | 1.04 | 1.25 |  |  |  |  |  |  |  |  | fold changes relative to vehicle control ([8]; HeLa, protein DHCR24 (24-DEHYDROCHOLESTEROL REDUCTASE PRECURSOR)): 0.88
7 | NCCCNc1ccc(C(=O)NC(CCC(=O)O)C(=O)O)cc1 (stereo not drawn) [compound 7] | 1.08 | 0.75 | 0.99 | 0.98 | 1.21 | 1.07 | 0.82 | 1.03 |  |  |  |  |  |  |  |  | fold changes relative to vehicle control [8, 11]: 1.03
